Data as given in patent publication US20260206761A1, “HETEROARYL-TRIAZOLE COMPOUNDS AS PESTICIDES” (Bayer Aktiengesellschaft, priority 2019, published 2026).

Columns and labels:
Assay type in all cases: in vivo
[1] = test system: adult engorged female ticks (Rhipicephalus microplus); assay: Rhipicephalus (Boophilus) microplus injection test; conditions: 168 h, egg deposition after 7 days, read-out: activity (efficacy: infertile eggs); for pest or weed control at 4 pg: application rate 4 pg/animal; for pest or weed control at 0.02 mg: application rate 20 μg/animal
In short: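 Five adult engorged female ticks injected into the abdomen with 1 μL compound solution in DMSO, then held in a climate chamber. Fertile egg deposition assessed after 7 days, unclear eggs kept until hatching (about 42 days); efficacy 100% = all eggs infertile, 0% = all fertile.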

[2] = test system: adult unfed cat fleas (Ctenocephalides felis); assay: Ctenocephalides felis oral test; conditions: 48 h, read-out: activity (mortality)
Procedure: Ctenocephalides felis—Oral Test
Solvent: dimethyl sulfoxide
To produce a suitable preparation of active compound, 10 mg of active compound are dissolved in 0.5 mL solvent, and the concentrate is diluted with cattle blood to the desired concentration.
Approximately 20 adult unfed cat fleas (Ctenocephalides felis) are placed in flea chambers. The blood chamber, sealed with parafilm on the bottom, are filled with cattle blood supplied with compound solution and placed on the gauze covered top of the flea chamber, so that the fleas are able to suck the blood. The blood chamber is heated to 37° C. whereas the flea chamber is kept at room temperature.
After 2 days mortality in % is determined. 100% means all the fleas have been killed; 0% means none of the fleas have been killed.

[3] = test system: larvae of the southern green stink bug (Nezara viridula); assay: Nezara viridula spray test; conditions: 96 h, after 4 days; for mortality at 100 g/ha: application rate 100 g/ha; for mortality at 500 g/ha: application rate 500 g/ha
In short: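 Compound in acetone/dimethylformamide, diluted in water with 1000 ppm alkylarylpolyglycol ether emulsifier, sprayed onto barley plants carrying stink bug larvae. Mortality (%) scored after 4 days, 100% meaning all insects killed.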

[4] = test system: green peach aphid (Myzus persicae); assay: Myzus persicae oral test; conditions: 120 h, application rate 4 ppm, after 5 days
In short: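 Compound was dissolved at 1 part by weight in 100 parts acetone, then diluted with water to test concentration and combined with IPL41 insect medium (33%+15% sugar). A mixed aphid population fed on this through a parafilm seal, and mortality (%) was scored after 5 days.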

[5] = test system: adult cat fleas (Ctenocephalides felis); assay: Ctenocephalides felis in-vitro contact test, adult cat flea; conditions: application rate 5 μg/cm^2 (=500 g/ha), after 48 hours, read-out: activity (efficacy: fleas dead or moribund)
Procedure: Ctenocephalides felis—In-Vitro Contact Tests Adult Cat Flea
9 mg compound is solved in 1 mL acetone and diluted with acetone to the desired concentration. 250 μL of the test solution is filled in 25 mL glass test tubes and homogeneously distributed on the inner walls by rotation and tilting on a shaking device (2 h at 30 rpm). With a compound concentration of 900 ppm, an inner surface of 44.7 cm^2 and a homogeneous distribution, a dose of […] is achieved.
After the solvent has evaporated, each test tube is filled with 5-10 adult cat fleas (Ctenocephalides felis), closed with a perforated lid and incubated in a lying position at room temperature and relative humidity. After 48 hours efficacy is determined. The fleas are patted on the ground of the tubes and are incubated on a heating plate at 45-50° C. for at most 5 minutes. Immotile or uncoordinated moving fleas, which are not able to escape the heat by climbing upwards, are marked as dead or moribund.
An efficacy of 100% means all fleas are dead or moribund; 0% means no fleas are dead or moribund.

[6] = test system: fall armyworm larvae (Spodoptera frugiperda); assay: Spodoptera frugiperda spray test; conditions: 168 h, read-out: activity (mortality)
In short: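 Compound in acetone/DMF, diluted in water with 1000 ppm alkylarylpolyglycol ether emulsifier, sprayed on maize leaf sections. Dried leaves infested with fall armyworm larvae; % mortality after 7 days (100% = all killed, 0% = none).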

[7] = test system: adult brown dog ticks (Rhipicephalus sanguineus); assay: Rhipicephalus sanguineus in-vitro contact test, adult brown dog ticks; conditions: after 48 hours, read-out: activity (efficacy: ticks dead or moribund); for pest or weed control at 100 g/ha: application rate 1 pg/cm^2 (=100 g/ha); for pest or weed control at 5 µg/cm2, 500 g/ha: application rate 5 μg/cm^2 (=500 g/ha)
In short: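 Acetone solution rolled onto tube walls, 2 h at 30 rpm; 900 ppm → 5 μg/cm^2. Solvent evaporated, 5-10 adults/tube, perforated lid, lying, RT. 48 h: heat plate 45-50° C ≤5 min; immotile/uncoordinated = dead/moribund. 100% = all dead/moribund.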

[8] = test system: larvae of the banded cucumber beetle (Diabrotica balteata); assay: Diabrotica balteata spray test; conditions: 168 h, after 7 days, read-out: activity (efficacy: seedlings grown); for pest or weed control at 100 g/ha: application rate 100 g/ha (=32 pg/well); for pest or weed control at 500 g/ha: application rate 500 g/ha (=160 pg/well)
In short: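 Wheat seedlings, germinated 1 day on agar (5 seeds/well), sprayed with active compound in acetone/DMF diluted in water containing 1000 ppm emulsifier, then infested with 10-20 D. balteata larvae. Efficacy (%) scored after 7 days: 100% = seedlings grown as untreated uninfested control, 0% = no seedlings grown.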

[9] = test system: Rhipicephalus microplus larvae (strain Parkhurst, resistant against synthetic pyrethroids); assay: Rhipicephalus (Boophilus) microplus in-vitro contact test, larval cattle tick; conditions: after 48 hours, read-out: activity (efficacy: larvae dead or moribund); for pest or weed control at 100 g/ha: application rate 1 pg/cm^2 (=100 g/ha); for pest or weed control at 500 g/ha: application rate 5 pg/cm^2 (=500 g/ha)
In short: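 Acetone solutions coated onto inner walls of glass tubes by rotation (900 ppm giving 5 μg/cm^2); after evaporation, 20-50 larvae added per tube and held at 27° C., 85% relative humidity. Efficacy read after 48 h from negative geotactic behaviour; 100% = all larvae dead or moribund.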

[10] = test system: Aedes aegypti strain MONHEIM; assay: Aedes aegypti test (AEDSAE surface treatment & contact assay); conditions: 24 hours after contact, read-out: efficacy (mortality); for mortality at 4 mg/m2: surface concentration 4 mg/m^2, exposure 30 minutes
Procedure: Aedes aegypti Test (AEDSAE Surface Treatment & Contact Assay)
Solvent: Aceton+2000 ppm rapeseed oil methyl ester (RME)
In order to produce a sufficient, active ingredient containing solution it is necessary to solve the test compound in the solvent-mix (acetone at 2 mg/ml/RME 2000 ppm). This solution is pipetted onto a glazed tile and after evaporation of the acetone, adult mosquitoes of the species Aedes aegypti strain MONHEIM are placed onto the dried surface. The exposure time is 30 minutes. Mortality in percent (%) is determined 24 hours after contact of the insects to the treated surface. 100% mortality means that all tested insects are dead, whereas 0% means that no insect died.

[11] = test system: green peach aphid (Myzus persicae); assay: Myzus persicae spray test; conditions: 120 h, after 5 days; for mortality at 100 g/ha: application rate 100 g/ha
Procedure: Myzus persicae—Spray Test
Solvent: 78.0 parts by weight acetone • 1.5 parts by weight dimethylformamide
Emulsifier: alkylarylpolyglycol ether
To produce a suitable preparation of active compound, 1 part by weight of active compound is mixed with the stated amount of solvents and is diluted with water, containing an emulsifier concentration of 1000 ppm, to the desired concentration. Further test concentrations are prepared by dilution with emulsifier containing water.
Chinese cabbage (Brassica pekinensis) leaf disks infected with all instars of the green peach aphid (Myzus persicae), are sprayed with a preparation of the active ingredient of the desired concentration.
After 5 days mortality in % is determined. 100% means all aphids have been killed and 0% means none of the aphids have been killed.

SMILES | pest or weed control at 4 pg [1] | pest or weed control at 0.02 mg [1] | mortality at 100 ppm [2] | mortality at 100 g/ha [3] | mortality at 500 g/ha [3] | mortality at 4 ppm [4] | pest or weed control at 5 µg/cm2 [5] | mortality at 500 g/ha [6] | pest or weed control at 100 g/ha [7] | pest or weed control at 100 g/ha [8] | pest or weed control at 500 g/ha [8] | pest or weed control at 100 g/ha [9] | pest or weed control at 500 g/ha [9] | mortality at 100 g/ha [6] | pest or weed control at 5 µg/cm2, 500 g/ha [7] | mortality at 4 mg/m2 [10] | mortality at 100 g/ha [11] | mortality at 500 g/ha ([11]; application rate 500 g/ha) | mortality at 20 mg/m2 ([10]; surface concentration 20 mg/m^2, exposure 30 minutes)
C[C@H](NC(=O)c1cc(C#N)cc(S(C)(=O)=O)c1)c1ncnn1-c1ccccn1 [II-31] | 100% | 100% | 100% | 100% | 100% | 100% | 100% | 83% | 100% | 100% | 100% |  |  |  |  |  |  |  | 
C[C@H](NC(=O)c1cc(I)cc(C2CC2)c1)c1ncnn1-c1ccc(C#N)cn1 [II-58] | 100% |  | 100% |  |  |  | 80% |  | 100% | 100% |  | 100% | 100% | 100% | 100% |  |  |  | 
C[C@H](NC(=O)c1cc(C(F)F)cc(S(C)(=O)=O)c1)c1nc(C2CC2)nn1-c1ccc(C#N)cn1 [I-51] | 100% |  | 100% |  |  | 100% | 90% |  |  | 100% |  | 100% | 100% | 100% |  |  |  |  | 
CCS(=O)(=O)c1cc(C(=O)N[C@@H](C)c2ncnn2-c2ccc(Cl)cn2)cc(C(F)(F)F)c1 [II-45] | 100% | 100% | 100% | 100% |  |  | 80% |  |  | 100% |  | 100% | 100% |  |  | 80 to 100% |  |  | 
COc1nc([C@H](C)NC(=O)c2cc(Cl)cc(S(C)(=O)=O)c2)n(-c2ccc(Cl)cn2)n1 [I-45] | 100% |  |  |  |  | 100% | 100% |  |  | 100% |  | 90% | 90% | 100% |  |  | 90% |  | 
C[C@H](NC(=O)c1cc(Cl)cc(S(C)(=O)=O)c1)c1nc(C2CC2)nn1-c1ncc(Cl)cn1 [I-61] |  |  |  | 100% | 100% | 100% | 100% |  | 80% | 100% |  | 100% | 100% | 100% | 100% |  | 90% | 90% | 
CC(NC(=O)c1cc(Cl)cc(S(C)(=O)=O)c1)c1nc(C(F)F)nn1-c1ncccn1 (stereo not drawn) [I-5] | 100% | 100% | 100% | 90% | 90% | 100% | 80% |  |  | 100% | 100% |  |  |  |  |  |  |  | 
C[C@H](NC(=O)c1cc(C#N)cc(C2CC2)c1)c1ncnn1-c1ccc(C#N)cn1 [II-53] |  |  | 100% |  |  |  | 100% |  |  |  |  | 80% | 80% | 83% |  | 80 to 100% |  |  | 80 to 100%
C[C@H](NC(=O)c1cc(Cl)cc(S(C)(=O)=O)c1)c1ncnn1-c1ncc(I)cn1 [II-44] | 100% | 100% | 100% | 100% |  | 100% | 100% |  |  |  |  | 100% | 100% | 100% |  |  |  |  | 
C[C@H](NC(=O)c1cc(Br)cc(S(C)(=O)=O)c1)c1ncnn1-c1ccc(Cl)cn1 [II-40] | 100% | 100% | 100% | 100% |  |  | 100% |  | 100% |  |  | 100% | 100% | 100% | 100% | 80 to 100% |  |  | 
CC(NC(=O)c1cc(Cl)cc(S(C)(=O)=O)c1)c1nc(Cl)nn1-c1ccc(C#N)cn1 (stereo not drawn) [I-32] | 100% | 100% | 100% |  |  |  | 100% |  |  |  |  | 100% | 100% | 100% |  |  |  |  | 
CCS(=O)(=O)c1cc(Cl)cc(C(=O)N[C@@H](C)c2nc(C3CC3)nn2-c2ncc(Cl)cn2)c1 [I-24] | 100% | 100% | 90% | 100% |  | 100% | 80% |  | 100% |  |  | 100% | 100% | 100% | 80% |  |  |  | 
